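Method: 48-hour compound exposure of cells in 96-well plates, five concentrations, linear interpolation of endpoints. Abbreviation: GI50, concentration required for 50% inhibition of growth.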 The source made the active and inactive calls. No stated cut-off is given here; in the data, active = GI50 up to about 1.1 µM and inactive = higher.
How the values were obtained:
Assay in all cases: NCI anticancer screen, dose series, 48 h
[1] = tested on: HCT-116
[2] = tested on: COLO 205
[3] = tested on: MDA-N
[4] = tested on: HL-60
[5] = tested on: Hs-578T
[6] = tested on: 786-0
[7] = tested on: KM12
[8] = tested on: SK-MEL-2
[9] = tested on: OVCAR-8
[10] = tested on: SF-268
[11] = tested on: UO-31
[12] = tested on: OVCAR-4
[13] = tested on: MOLT-4
[14] = tested on: SK-OV-3
[15] = tested on: SR
[16] = tested on: TK-10
[17] = tested on: A549
[18] = tested on: IGROV-1
[19] = tested on: PC-3
[20] = tested on: RXF 393

Measured: GI50

COc1cccc(C23CCN(C)C(CC(O)C2)C3)c1OC (stereo unspecified)
inactive: [1] > 100 µM | [2] > 100 µM | [3] > 100 µM | [4] > 100 µM | [5] > 100 µM | [6] > 100 µM | [7] > 100 µM | [8] > 100 µM | [9] > 100 µM | [10] > 100 µM | [11] > 100 µM | [12] > 100 µM | [13] > 100 µM | [14] > 100 µM | [15] > 100 µM | [16] > 100 µM | [17] > 100 µM | [18] > 100 µM | [19] > 100 µM

Cc1nc(C)c(N2CCN(C(=O)O)CC2)c(O)n1
inactive: [1] > 100 µM | [20] > 100 µM | [2] > 100 µM | [3] > 100 µM | [4] > 100 µM | [5] > 100 µM | [6] > 100 µM | [7] > 100 µM | [9] > 100 µM | [10] > 100 µM | [11] > 100 µM | [12] > 100 µM | [13] > 100 µM | [14] > 100 µM | [15] > 100 µM | [16] > 100 µM | [17] > 100 µM | [18] > 100 µM | [19] > 100 µM

Cc1cccc(/C=N/NC(=S)NC(C)(C)C)n1
inactive: [1] 19.7 µM | [2] 6.14 µM | [3] > 100 µM | [4] 85.5 µM | [5] > 100 µM | [6] 76.9 µM | [7] > 100 µM | [8] > 100 µM | [9] 50.8 µM | [10] 41 µM | [11] 62.4 µM | [12] 62.7 µM | [13] 4.72 µM | [14] > 100 µM | [15] 23.7 µM | [16] 75.2 µM | [17] > 100 µM | [18] 66.7 µM | [19] 23.7 µM

COc1ccc(C2SC(C)C(=O)N2c2nc(-c3nc(-c4ccc(Cl)cc4)cs3)cs2)cc1 (stereo unspecified)
inactive: [1] > 100 µM | [20] > 100 µM | [2] > 100 µM | [3] > 100 µM | [4] 94.4 µM | [5] > 100 µM | [6] > 100 µM | [7] > 100 µM | [9] > 100 µM | [10] > 100 µM | [11] > 100 µM | [12] > 100 µM | [13] 49.2 µM | [14] > 100 µM | [15] > 100 µM | [16] > 100 µM | [17] > 100 µM | [18] > 100 µM | [19] 66.8 µM

Reference: ChEMBL document CHEMBL1201862, “PubChem BioAssay data set” (2004)
